The numbers were not newly measured in patent publication US5209933A, “Long acting calcium channel blocker composition” (Syntex (U.S.A.) Inc., priority 1991, dated 1993), which cites them from elsewhere.

Read-outs that look alike come from different tables or passages of the source.

Data set [1] deals with calcium channel. As to conditions: result in words.
The conditions of data set [2]: result in words.
For data set [3] the following is noted: result in words. The source holds these as a separate data set.

In the case of “4-(3'-nitrophenyl)-2,6-dimethyl-1,4-dihydropyridine-3,5-dicarboxylic acid 3-methyl ester 5-(2-methoxyethyl)ester [nimodipine]”, the “calcium channel blocking activity” value in data set [1] is “high degree of calcium channel blocking activity”.

Turning to `CCOC(=O)C1=C(C)NC(C)=C(C(=O)OCC)C1c1ccccc1C(F)F` [2,6-dimethyl-3,5-diethoxycarbonyl-4-(o-difluoromethylphenyl)-1,4-dichydropyridine], the “calcium channel blocking activity” value in data set [1] is reported as “high degree of calcium channel blocking activity”. In the case of `CCOC(=O)C1=C(C)NC(C)=C(C(=O)OC)C1c1cccc(Cl)c1Cl` (stereo not drawn) [felodipine, 4-(2',3'-dichloro)-2,6-dimethyl-1,4-dihydropyridine-3,5-dicarboxylic acid 3-ethyl ester 5-methyl ester], in data set [1], the “calcium channel blocking activity” value is “high degree of calcium channel blocking activity”. Regarding `COC(=O)C1=C(C)NC(C)=C(C(=O)OC(C)C)C1c1cccc([N+](=O)[O-])c1` (stereo not drawn) [isopropyl methyl 1,4-dihydro-2,6-dimethyl 4-(3-nitrophenyl)-3,5-pyridine dicarboxylate], the “calcium channel blocking activity” value in data set [1] was “high degree of calcium channel blocking activity”. In the case of `COC(=O)C1=C(C)NC(C)=C(C(=O)OCCN(C)Cc2ccccc2)C1c1cccc([N+](=O)[O-])c1` (stereo not drawn) [nicardipine, 2,6-dimethyl-4-(3'-nitrophenyl)-1,4-dihydropyridine-3,5-dicarboxylic acid-3-β-(N-benzyl-N-methylamino)-ethyl ester 5-methyl ester], in data set [2], the anti-ischemic properties result was “possesses anti-ischemic properties”. The “calcium channel blocking activity” value in data set [1] is “high degree of calcium channel blocking activity”. Moreover, the first pass metabolism entry in data set [3] is “extensive first pass metabolism”. As for `COC(=O)C1=C(C)NC(C)=C(C(=O)OC)C1c1ccccc1[N+](=O)[O-]` [nifedipine, 4-(2'-nitrophenyl)-2,6-dimethyl-1,4-dihydropyridine-3,5-dicarboxylic acid dimethyl ester], the “calcium channel blocking activity” value in data set [1] is listed as “high degree of calcium channel blocking activity”; in data set [1] (listed as 4-(2'-nitrophenyl)-2,6-dimethyl-1,4-dihydropyridine-3,5-dicarboxylic acid dimeth), “shows calcium channel blocking activity”. Consider `CCCOCCOC(=O)C1=C(C)NC(C)=C(C(=O)OCCOCCC)C1c1cccc([N+](=O)[O-])c1` [niludipine, 4-(3'-nitrophenyl)-2,6-dimethyl-1,4-dihydropyridine-3,5-dicarboxylic acid di-n-propyloxethyl ester], for which, in data set [1], the “calcium channel blocking activity” value is “high degree of calcium channel blocking activity”. With `COC(=O)C1=C(C)NC(C)=C(C(=O)OCC(C)C)C1c1ccccc1[N+](=O)[O-]` (stereo not drawn) [nisoldipine, 4-(2'-nitrophenyl)-2,6-dimethyl-1,4-dihydropyridine-3,5-dicarboxylic acid 3-methyl ester 5-isobutyl ester], the “calcium channel blocking activity” value in data set [1] is on record as “high degree of calcium channel blocking activity”. For `CCOC(=O)C1=C(C)NC(C)=C(C(=O)OC)C1c1cccc([N+](=O)[O-])c1` (stereo not drawn) [nitrendipine, 4-(3'-nitrophenyl)-2,6-dimethyl-1,4-dihydropyridine-3,5-dicarboxylic acid 3-ethyl ester 5-methyl ester], the “calcium channel blocking activity” value in data set [1] was “high degree of calcium channel blocking activity”.
